{"source": "ChEMBL document CHEMBL1136447", "about": "“Biological investigation and structure-activity relationship studies on azadirone from Azadirachta indica A. Juss” (2003)", "key": {"[1]": {"tested_on": "A498", "assay": "In vitro cytotoxic activity against renal (A498) cell line at a concentration of 10e-5 M", "type": "functional, Homo sapiens"}, "[2]": {"tested_on": "DU-145", "assay": "In vitro cytotoxic activity against prostate (DU145) cell line at a concentration of 10e-5 M", "type": "functional, Homo sapiens"}, "[3]": {"tested_on": "M14", "assay": "In vitro cytotoxic activity against Melanoma (M14) cell line at a concentration of 10e-5 M", "type": "functional, Homo sapiens"}, "[4]": {"tested_on": "MCF7", "assay": "In vitro cytotoxic activity against breast (MCF-7/ADR) cell line at a concentration of 10e-5 M", "type": "functional, Homo sapiens"}, "[5]": {"tested_on": "SW-620", "assay": "In vitro cytotoxic activity against colon (SW620) cell line at a concentration of 10e-5 M", "type": "functional, Homo sapiens"}, "[6]": {"tested_on": "U-251", "assay": "In vitro cytotoxic activity against CNS(U251) cell line at a concentration of 10e-5 M", "type": "functional, Homo sapiens"}, "[7]": {"tested_on": "SK-OV-3", "assay": "In vitro cytotoxic activity against Ovarian (SK-OV3) cell line at a concentration of 10e-5 M", "type": "functional, Homo sapiens"}, "[8]": {"tested_on": "NCI-H522", "assay": "In vitro cytotoxicity against H522 (human adenocarcinoma) cell line at a concentration of 10e-5 M."}}}
{"smiles": "CCOC1=C[C@@]2(C)C(C[C@@H](O)[C@@]3(C)C4=CC[C@@H](c5ccoc5)[C@]4(C)CCC23)C(C)(C)C1=O", "note": "(stereo partly drawn)", "values": [{"measurement": "Growth", "setting": "[1]", "result": 52, "unit": "%"}, {"measurement": "Growth", "setting": "[2]", "result": 84, "unit": "%"}, {"measurement": "Growth", "setting": "[3]", "result": 67, "unit": "%"}, {"measurement": "Growth", "setting": "[4]", "result": 17, "unit": "%"}, {"measurement": "Growth", "setting": "[5]", "result": 36, "unit": "%"}, {"measurement": "Growth", "setting": "[6]", "result": 54, "unit": "%"}, {"measurement": "Growth", "setting": "[7]", "result": 67, "unit": "%"}, {"measurement": "Growth", "setting": "[8]", "result": 57, "unit": "%"}]}
{"smiles": "CCO[C@@H]1CC2C(C)(C)C(=O)C=C[C@]2(C)C2CC[C@]3(C)C(=CC[C@H]3c3ccoc3)[C@@]21C", "note": "(stereo partly drawn)", "values": [{"measurement": "Growth", "setting": "[1]", "result": 45, "unit": "%"}, {"measurement": "Growth", "setting": "[2]", "result": 76, "unit": "%"}, {"measurement": "Growth", "setting": "[3]", "result": 61, "unit": "%"}, {"measurement": "Growth", "setting": "[4]", "result": 66, "unit": "%"}, {"measurement": "Growth", "setting": "[5]", "result": 81, "unit": "%"}, {"measurement": "Growth", "setting": "[6]", "result": 63, "unit": "%"}, {"measurement": "Growth", "setting": "[7]", "result": 100, "unit": "%"}, {"measurement": "Growth", "setting": "[8]", "result": 69, "unit": "%"}]}
{"smiles": "CC1(C)C(O)C=C[C@@]2(C)C1C[C@@H](O)[C@@]1(C)C3=CC[C@@H](c4ccoc4)[C@]3(C)CCC21", "note": "(stereo partly drawn)", "values": [{"measurement": "Growth", "setting": "[1]", "result": 88.2, "unit": "%"}, {"measurement": "Growth", "setting": "[2]", "result": 100, "unit": "%"}, {"measurement": "Growth", "setting": "[3]", "result": 100, "unit": "%"}, {"measurement": "Growth", "setting": "[4]", "result": 76, "unit": "%"}, {"measurement": "Growth", "setting": "[5]", "result": 79.6, "unit": "%"}, {"measurement": "Growth", "setting": "[6]", "result": 100, "unit": "%"}, {"measurement": "Growth", "setting": "[7]", "result": 100, "unit": "%"}, {"measurement": "Growth", "setting": "[8]", "result": 97, "unit": "%"}]}
{"smiles": "CC1(C)C(=O)C=C[C@@]2(C)C1C[C@@H](OC(=O)C(F)(F)F)[C@@]1(C)C3=CC[C@@H](c4ccoc4)[C@]3(C)CCC21", "note": "(stereo partly drawn)", "values": [{"measurement": "Growth", "setting": "[1]", "result": 59, "unit": "%"}, {"measurement": "Growth", "setting": "[2]", "result": 77, "unit": "%"}, {"measurement": "Growth", "setting": "[3]", "result": 86, "unit": "%"}, {"measurement": "Growth", "setting": "[4]", "result": 54, "unit": "%"}, {"measurement": "Growth", "setting": "[5]", "result": 60, "unit": "%"}, {"measurement": "Growth", "setting": "[6]", "result": 52, "unit": "%"}, {"measurement": "Growth", "setting": "[7]", "result": 49, "unit": "%"}, {"measurement": "Growth", "setting": "[8]", "result": 75, "unit": "%"}]}
{"smiles": "CC(=O)O[C@@H]1CC2C(C)(C)C(=O)[C@@H]3O[C@@H]3[C@]2(C)C2CC[C@]3(C)C(=CC[C@H]3c3ccoc3)[C@@]21C", "note": "(stereo partly drawn)", "values": [{"measurement": "Growth", "setting": "[1]", "result": 42.7, "unit": "%"}, {"measurement": "Growth", "setting": "[2]", "result": 63.1, "unit": "%"}, {"measurement": "Growth", "setting": "[3]", "result": 100, "unit": "%"}, {"measurement": "Growth", "setting": "[4]", "result": 59.3, "unit": "%"}, {"measurement": "Growth", "setting": "[5]", "result": 100, "unit": "%"}, {"measurement": "Growth", "setting": "[6]", "result": 100, "unit": "%"}, {"measurement": "Growth", "setting": "[7]", "result": 100, "unit": "%"}, {"measurement": "Growth", "setting": "[8]", "result": 69.6, "unit": "%"}]}
{"smiles": "CC(=O)O[C@@H]1CC2C(C)(C)C(=O)C=C[C@]2(C)C2CC[C@]3(C)C(=CC[C@H]3C3=CC(=O)OC3O)[C@@]21C.CC(=O)O[C@@H]1CC2C(C)(C)C(=O)C=C[C@]2(C)C2CC[C@]3(C)C(=CC[C@H]3C3=CC(O)OC3=O)[C@@]21C", "note": "(stereo partly drawn)", "values": [{"measurement": "Growth", "setting": "[1]", "result": 70.3, "unit": "%"}, {"measurement": "Growth", "setting": "[2]", "result": 24.8, "unit": "%"}, {"measurement": "Growth", "setting": "[3]", "result": 71.3, "unit": "%"}, {"measurement": "Growth", "setting": "[4]", "result": -13, "unit": "%"}, {"measurement": "Growth", "setting": "[5]", "result": 100, "unit": "%"}, {"measurement": "Growth", "setting": "[6]", "result": 44.3, "unit": "%"}, {"measurement": "Growth", "setting": "[7]", "result": 41.6, "unit": "%"}, {"measurement": "Growth", "setting": "[8]", "result": 73.3, "unit": "%"}]}
{"smiles": "CC(C)C(=O)O[C@@H]1CC2C(C)(C)C(=O)C=C[C@]2(C)C2CC[C@]3(C)C(=CC[C@H]3c3ccoc3)[C@@]21C", "note": "(stereo partly drawn)", "values": [{"measurement": "Growth", "setting": "[1]", "result": 74, "unit": "%"}, {"measurement": "Growth", "setting": "[2]", "result": 69, "unit": "%"}, {"measurement": "Growth", "setting": "[3]", "result": 95, "unit": "%"}, {"measurement": "Growth", "setting": "[4]", "result": 57, "unit": "%"}, {"measurement": "Growth", "setting": "[5]", "result": 61, "unit": "%"}, {"measurement": "Growth", "setting": "[6]", "result": 40, "unit": "%"}, {"measurement": "Growth", "setting": "[7]", "result": 84, "unit": "%"}, {"measurement": "Growth", "setting": "[8]", "result": 54, "unit": "%"}]}
{"smiles": "COc1ccc(/C=C\\C(=O)O[C@@H]2CC3C(C)(C)C(=O)C=C[C@]3(C)C3CC[C@]4(C)C(=CC[C@H]4c4ccoc4)[C@@]32C)cc1OC", "note": "(stereo partly drawn)", "values": [{"measurement": "Growth", "setting": "[1]", "result": 5, "unit": "%"}, {"measurement": "Growth", "setting": "[2]", "result": 25, "unit": "%"}, {"measurement": "Growth", "setting": "[3]", "result": 39, "unit": "%"}, {"measurement": "Growth", "setting": "[4]", "result": 66, "unit": "%"}, {"measurement": "Growth", "setting": "[5]", "result": 62, "unit": "%"}, {"measurement": "Growth", "setting": "[6]", "result": 77, "unit": "%"}, {"measurement": "Growth", "setting": "[7]", "result": 85, "unit": "%"}, {"measurement": "Growth", "setting": "[8]", "result": 63, "unit": "%"}]}
{"smiles": "CC(=O)O[C@@H]1CC2C(C)(C)/C(=N/O)C=C[C@]2(C)C2CC[C@]3(C)C(=CC[C@H]3c3ccoc3)[C@@]21C", "note": "(stereo partly drawn)", "values": [{"measurement": "Growth", "setting": "[1]", "result": 20, "unit": "%"}, {"measurement": "Growth", "setting": "[2]", "result": 56, "unit": "%"}, {"measurement": "Growth", "setting": "[3]", "result": 38, "unit": "%"}, {"measurement": "Growth", "setting": "[4]", "result": 55, "unit": "%"}, {"measurement": "Growth", "setting": "[5]", "result": 47, "unit": "%"}, {"measurement": "Growth", "setting": "[6]", "result": 5, "unit": "%"}, {"measurement": "Growth", "setting": "[7]", "result": 87, "unit": "%"}, {"measurement": "Growth", "setting": "[8]", "result": 44, "unit": "%"}]}
{"smiles": "CC(=O)OC1C=C[C@@]2(C)C(C[C@@H](OC(C)=O)[C@@]3(C)C4=CC[C@@H](c5ccoc5)[C@]4(C)CCC23)C1(C)C", "note": "(stereo partly drawn)", "values": [{"measurement": "Growth", "setting": "[1]", "result": 69, "unit": "%"}, {"measurement": "Growth", "setting": "[2]", "result": 74, "unit": "%"}, {"measurement": "Growth", "setting": "[3]", "result": 76, "unit": "%"}, {"measurement": "Growth", "setting": "[4]", "result": 78, "unit": "%"}, {"measurement": "Growth", "setting": "[5]", "result": 59, "unit": "%"}, {"measurement": "Growth", "setting": "[6]", "result": 46, "unit": "%"}, {"measurement": "Growth", "setting": "[7]", "result": 19.3, "unit": "%"}, {"measurement": "Growth", "setting": "[8]", "result": 86, "unit": "%"}]}
{"smiles": "CCC(=O)O[C@@H]1CC2C(C)(C)C(=O)C=C[C@]2(C)C2CC[C@]3(C)C(=CC[C@H]3c3ccoc3)[C@@]21C", "note": "(stereo partly drawn)", "values": [{"measurement": "Growth", "setting": "[1]", "result": 67, "unit": "%"}, {"measurement": "Growth", "setting": "[2]", "result": 67, "unit": "%"}, {"measurement": "Growth", "setting": "[3]", "result": 39, "unit": "%"}, {"measurement": "Growth", "setting": "[4]", "result": 29, "unit": "%"}, {"measurement": "Growth", "setting": "[5]", "result": 51, "unit": "%"}, {"measurement": "Growth", "setting": "[6]", "result": 40, "unit": "%"}, {"measurement": "Growth", "setting": "[7]", "result": 61, "unit": "%"}, {"measurement": "Growth", "setting": "[8]", "result": 48, "unit": "%"}]}
